Experimental data reported in US20230278972A1, “SUBSTITUTED HALOALKYL SULFONANILIDE HERBICIDES” (FMC Corporation, priority 2020, published 2023).

Experiments:
Assay type in all cases: in vivo
[1] = system: soybean (Glycine max); assay: Test A1 preemergence, soybean
Summary of the method: (§1)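 Herbicidal response was scored on plants treated either preemergence, by directed spray onto soil of a loam–sand blend after sowing, or postemergence on potted plants at the one- to two-leaf stage, 2–10 cm high. Test chemicals were carried in a non-phytotoxic solvent mix with surfactant.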

[2] = system: goosegrass (Eleusine indica); assay: Test A1 preemergence, goosegrass
Summary of the method: as §1

[3] = system: Pigweed, Palmer (palmer amaranth, palmer pigweed, Amaranthus palmeri); assay: Test A1 preemergence, Pigweed, Palmer
Summary of the method: as §1

[4] = system: blackgrass (Alopecurus myosuroides); assay: Test A1 preemergence, blackgrass
Summary of the method: as §1

[5] = system: goosegrass (Eleusine indica); assay: Test A1 postemergence, goosegrass; details: for Plant response rating, Goosegrass: Postemergence; for Goosegrass plant response rating: postemergence
Summary of the method: (§2)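 Plants grown in pots of loam/sand mix; preemergence = soil-directed spray on seeded pots, postemergence = spray at 1–2 leaves, height 2–10 cm; test chemicals formulated in non-phytotoxic solvent with surfactant.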

[6] = system: Ryegrass, Italian (Italian ryegrass, Lolium multiflorum); assay: Test A1 postemergence, Ryegrass, Italian; details: for Plant response rating, Ryegrass, Italian: Postemergence; for Ryegrass, Italian plant response rating: postemergence
Summary of the method: as §2

[7] = system: horseweed (Erigeron canadensis); assay: Test A1 postemergence, horseweed; details: Postemergence
Summary of the method: as §2

[8] = system: corn (Zea mays); assay: Test A1 postemergence, corn; details: Postemergence
Summary of the method: as §1

[9] = 31 g ai/ha, 0 to 100 scale (0 no effect, 100 complete control)
[10] = 125 g ai/ha, 0 to 100 scale, 0 no effect, 100 complete control
[11] = 31 g ai/ha, 0 to 100 scale (0 no effect, 100 complete control), 10 days

Row | SMILES | Plant response rating, Soybean [1, 9] | Plant response rating, Soybean [1, 10] | Plant response rating, Goosegrass [2, 9] | Plant response rating, Goosegrass [2, 10] | Plant response rating, Pigweed, Palmer [3, 9] | Plant response rating, Pigweed, Palmer [3, 10] | Plant response rating, Blackgrass [4, 9] | Plant response rating, Blackgrass [4, 10] | Plant response rating, Goosegrass [5, 11] | Plant response rating, Goosegrass ([5]; 125 g ai/ha, 0 to 100 scale) | Plant response rating, Ryegrass, Italian [6, 11] | Plant response rating, Ryegrass, Italian ([6]; 125 g ai/ha, 0 to 100 scale) | Plant response rating, Horseweed [7, 11] | Plant response rating, Horseweed ([7]; 125 g ai/ha, 0 to 100 scale) | Plant response rating, Corn [8, 11] | Plant response rating, Corn ([8]; 125 g ai/ha, 0 to 100 scale) | Goosegrass plant response rating [5, 9] | Ryegrass, Italian plant response rating [6, 9]
1 | Cc1cc(C)c(N(COC(=O)C(C)(C)C)S(=O)(=O)C(F)(F)F)cc1C1=NOC2CCCCCC12 (single isomer, unassigned) [Compound 294] | 0 | 0 | 0 | 90 | 10 | 30 | 10 | 0 | 0 | 30 | 0 | 40 | 10 | 90 | 10 | 20 | – | –
2 | Cc1cc(C)c(-n2nccc(C)c2=O)cc1NS(=O)(=O)C(F)(F)F [Compound 281] | 0 | 80 | 10 | 90 | 0 | 40 | 0 | 0 | 0 | 40 | 0 | 0 | 100 | 70 | 0 | 0 | – | –
3 | COc1cnn(-c2cc(NS(=O)(=O)C(F)(F)F)c(C)cc2C)c(=O)c1OC [Compound 282] | 20 | 20 | 0 | 90 | 0 | 80 | 30 | 60 | 20 | 80 | 30 | 60 | 50 | 80 | 0 | 80 | – | –
4 | Cc1c(NS(=O)(=O)C(F)(F)F)cc(C(=O)N(C)C)c(C)c1Cl [Compound 287] | 0 | 30 | 70 | 90 | 0 | 90 | 0 | 30 | 0 | 60 | 0 | 60 | 20 | 40 | 0 | 0 | – | –
5 | Cc1c(NS(=O)(=O)C(F)(F)F)cc(C(=O)N(C)C)c(C)c1C [Compound 288] | 30 | 40 | 30 | 90 | 50 | 70 | 0 | 0 | 0 | 70 | 0 | 0 | 20 | 30 | 0 | 10 | – | –
6 | Cc1c(NS(=O)(=O)C(F)(F)F)cc(C(=O)N2CCOCC2)c(C)c1C [Compound 289, 1,1,1-Trifluoro-N-[2,3,4-trimethyl-5-(4-morpholinylcarbonyl)phenyl]methanesulfonamide] | 20 | 60 | 80 | 90 | 90 | 100 | 0 | 60 | 40 | 70 | 30 | 60 | 80 | 90 | 0 | 20 | – | –
7 | Cc1c(NS(=O)(=O)C(F)(F)F)cc(C(=O)N2CCOCC2)c(C)c1Cl [Compound 290] | 0 | 0 | 70 | 90 | 0 | 50 | 20 | 70 | 30 | 70 | 0 | 50 | 70 | 90 | 0 | 20 | – | –
8 | Cc1cc(C)c(C2=NOC3CCCCCC23)cc1NS(=O)(=O)C(F)(F)F (stereo not drawn) [Compound 292] | 0 | 40 | 80 | 100 | 60 | 60 | 0 | 30 | 0 | 80 | 0 | 30 | 0 | 30 | 0 | 0 | – | –
9 | Cc1cc(C)c(N(C(=O)OC(C)C)S(=O)(=O)C(F)(F)F)cc1C1=NOC2CCCC12 (stereo not drawn) [Compound 295] | 0 | 0 | 80 | 90 | 0 | 80 | 0 | 0 | 20 | 70 | 0 | 30 | 10 | 50 | 0 | 0 | – | –
10 | Cc1cc(C)c(C2=NOC3COCC23)cc1NS(=O)(=O)C(F)(F)F (stereo not drawn) [Compound 297] | 0 | 50 | 70 | 90 | 30 | 90 | 20 | 40 | 0 | 70 | 0 | 60 | 50 | 80 | 0 | 0 | – | –
11 | Cc1cc(C)c(N(C(=O)OCC(C)C)S(=O)(=O)C(F)(F)F)cc1C1=NOC2CCCC12 (stereo not drawn) [Compound 299] | 0 | 0 | 60 | 90 | 0 | 70 | 0 | 30 | 30 | 40 | 30 | 50 | 0 | 30 | 0 | 0 | – | –
12 | Cc1cc(C)c(N(COC(=O)C(C)(C)C)S(=O)(=O)C(F)(F)F)cc1C1=NOC2COCC12 (stereo not drawn) [Compound 301] | 0 | 20 | 80 | 100 | 10 | 40 | 30 | 40 | 0 | 60 | 0 | 60 | 50 | 80 | 0 | 30 | – | –
13 | COC1CCN(C(=O)c2cc(NS(=O)(=O)C(F)(F)F)c(C)c(C)c2C)CC1 [Compound 367] | 0 | 90 | 60 | 80 | 80 | 100 | 0 | 0 | – | 70 | – | 0 | – | – | 0 | 70 | 10 | 0
14 | C#CCN(C)C(=O)c1cc(NS(=O)(=O)C(F)(F)F)c(C)c(C)c1C [Compound 368] | 90 | 100 | 70 | 90 | 100 | 100 | 10 | 40 | – | 90 | – | 90 | – | – | 40 | 90 | 30 | 20
15 | Cc1c(C(=O)N2CCC(C)CC2)cc(N(COC(=O)C(C)(C)C)S(=O)(=O)C(F)(F)F)c(C)c1C [Compound 369] | 0 | 30 | 0 | 50 | 0 | 50 | 0 | 0 | – | 0 | – | 20 | – | – | 0 | 50 | 0 | 0
